Measurements as given in patent US12590062B2, “PD-1/PD-L1 inhibitors” (Gilead Sciences, Inc., priority 2017, dated 2026).

Assays:
PD-1/PD-L1 = PD-1/PD-L1 (Homo sapiens, UniProt Q9NZQ7); assay: PD-1/PD-L1 biochemical protein-protein interaction assay (ALPHA); assay type: binding; conditions: 0.3 nM His tagged PD-L1, 2.5 nM biotinylated Fc-PD-1, 60 minutes at 25° C., read-out: IC50 PD-L1-PD-1 Alpha IC50-mono PD-L1-fcP-D1
How it was run: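 Compounds are tested for blocking the PD-1/PD-L1 extracellular-domain interaction using an ALPHA bead assay, in which inhibition lowers the luminescent signal. Reactions run 60 min at 25° C with 0.3 nM His-PD-L1 and 2.5 nM biotinylated Fc-PD-1. IC50 values come from four-parameter fits.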

PD-L1 = biological target: T1, PD-L1 (Homo sapiens, UniProt Q9NZQ7); assay: PD-L1/PD-L1 dimerization biochemical protein-protein interaction assay (ALPHA); assay type: binding; conditions: compound-induced PD-L1 dimerization, head prints '1 nM' (0.5 nM His-tagged PD-L1 and 0.5 nM FLAG-tagged PD-L1), read-out: AC50 PDL1 Dimer Alpha 1 nM
T1 construct: determine if they can specifically dimerize the extracellular domains of PD-L1
T1 sequence (Q9NZQ7 19-238 limits assumed): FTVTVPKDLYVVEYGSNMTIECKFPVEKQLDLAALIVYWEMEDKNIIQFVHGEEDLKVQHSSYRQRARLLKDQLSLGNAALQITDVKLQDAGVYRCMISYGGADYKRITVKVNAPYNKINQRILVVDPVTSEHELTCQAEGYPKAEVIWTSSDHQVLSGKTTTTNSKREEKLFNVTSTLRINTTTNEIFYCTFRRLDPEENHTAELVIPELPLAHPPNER
T1 sequence (Q9NZQ7 19-238 limits assumed): as above
How it was run: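 ALPHA proximity assay of compound-induced dimerization of 0.5 nM His-tagged and 0.5 nM FLAG-tagged PD-L1 extracellular domains in Hepes pH 7.4 buffer, 2 h at 25 °C. Anti-His acceptor then anti-FLAG donor beads, 60 min each; AC50 from four-parameter fit.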

PD-1/PD-L1 interaction = biological target: T2, PD-1/PD-L1 interaction (Homo sapiens, UniProt Q9NZQ7); assay: PD-1/PD-L1 NFAT reporter co-culture assay; assay type: cell-based; conditions: Jurkat PD-1 NFAT-luciferase cells co-cultured with aAPC-PD-L1 CHO cells, 6 hrs at 37° C.; read-out: EC50 NFAT Luciferase
T2 construct: expressed in transfected cells; host or cells: CHO cells (aAPC-PD-L1) co-cultured with Jurkat cells overexpressing PD-1 and an NFAT-luciferase reporter
T2 sequence (Q9NZQ7 19-290): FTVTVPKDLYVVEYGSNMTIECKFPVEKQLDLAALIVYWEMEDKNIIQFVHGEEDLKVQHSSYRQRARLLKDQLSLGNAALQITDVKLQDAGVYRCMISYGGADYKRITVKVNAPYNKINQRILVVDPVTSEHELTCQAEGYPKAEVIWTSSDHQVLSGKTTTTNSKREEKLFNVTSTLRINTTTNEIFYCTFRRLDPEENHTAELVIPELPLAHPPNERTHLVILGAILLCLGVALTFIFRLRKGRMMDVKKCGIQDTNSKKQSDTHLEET
How it was run: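 First, CHO cells displaying anti-CD3 antibody and PD-L1 were plated overnight. Next, compound-treated PD-1 Jurkat NFAT-luciferase reporter cells in 2% FBS RPMI were added for 6 h at 37 °C. Finally, ONE-Glo luminescence was read and EC50 values fitted with a four-parameter equation.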

PD-1/PD-L1, sequence (Q9NZQ7 19-238 limits assumed): as the sequence (Q9NZQ7 19-238 limits assumed) above

IC50 (PD-1/PD-L1) [nM] | AC50 (PD-L1) [nM] | EC50 (PD-1/PD-L1 interaction) [nM] | SMILES
0.168 | 103 | 240 | Cc1c(COc2cc(OCc3cncc(C#N)c3)c(CN3CC[C@@H](O)C3)cc2Cl)cccc1-c1cccc(-c2ccc(OCCNC[C@@H](O)CC(=O)O)cc2)c1C [Example 309, (S)-4-((2-((3″-((2-chloro-5-((5-cyanopyridin-3-yl)methoxy)-4-(((R)-3-hydroxypyrrolidin-1-yl)methyl)phenoxy)methyl)-2′,2″-dimethyl-[1,1′:3′,1″-terphenyl]-4-yl)oxy)ethyl)amino)-3-hydroxybutanoic acid]
0.069 | 121 | 215 | Cc1c(COc2cc(OCc3cncc(C#N)c3)c(CN[C@](C)(CO)C(=O)O)cc2Cl)cccc1-c1cccc(-c2ccc(OCCNCCO)c(S(C)(=O)=O)c2)c1C [Example 310, (R)-2-((5-chloro-2-((5-cyanopyridin-3-yl)methoxy)-4-((4″-(2-((2-hydroxyethyl)amino)ethoxy)-2,2′-dimethyl-3″-(methylsulfonyl)-[1,1′:3′,1″-terphenyl]-3-yl)methoxy)benzyl)amino)-3-hydroxy-2-methylpropanoic acid]
0.064 | 75.5 | 104 | Cc1c(COc2cc(OCc3cncc(C#N)c3)c(CN[C@@](C)(CO)C(=O)O)cc2Cl)cccc1-c1cccc(-c2ccc(OCCNCCO)cc2)c1C [Example 311, (S)-2-((5-chloro-2-((5-cyanopyridin-3-yl)methoxy)-4-((4″-(2-((2-hydroxyethyl)amino)ethoxy)-2, 2′-dimethyl-[1, 1′:3′,1″-terphenyl]-3-yl)methoxy)benzyl)amino)-3-hydroxy-2-methylpropanoic acid]
0.051 | 144 | 97 | Cc1c(COc2cc(OCc3cncc(C#N)c3)c(CNC[C@@H](O)CC(=O)O)cc2Cl)cccc1-c1cccc(-c2ccc(OCCNC[C@@H](O)CC(=O)O)c(C(N)=O)c2)c1C [Example 312, (S)-4-((2-((3-carbamoyl-3″-((4-((((S)-3-carboxy-2-hydroxypropyl)amino)methyl)-2-chloro-5-((5-cyanopyridin-3-yl)methoxy)phenoxy)methyl)-2′,2″-dimethyl-[1,1′:3′,1″-terphenyl]-4-yl)oxy)ethyl)amino)-3-hydroxybutanoic acid]
0.051 | 91.3 | 152 | Cc1c(COc2cc(OCc3cncc(C#N)c3)c(CN[C@@](C)(CO)C(=O)O)cc2Cl)cccc1-c1cccc(-c2ccc(OCCN[C@@](C)(CO)C(=O)O)cc2)c1C [Example 313, (S)-2-((4-((4″-(2-(((S)-2-carboxy-1-hydroxypropan-2-yl)amino)ethoxy)-2,2′-dimethyl-[1,1′:3′,1″-terphenyl]-3-yl)methoxy)-5-chloro-2-((5-cyanopyridin-3-yl)methoxy)benzyl)amino)-3-hydroxy-2-methylpropanoic acid]
0.577 | 1180 | 1100 | COc1cc(-c2cccc(-c3cccc(-c4ccc(CNC[C@@H](O)CC(=O)O)c(OC)c4)c3C)c2C)ccc1CNC[C@@H](O)CC(=O)O [Example 317, (3S,3′S)-4,4′-(((3,3′″-dimethoxy-2′,2″-dimethyl-[1,1′:3′,1″:3″,1′″-quaterphenyl]-4,4′″-diyl)bis(methylene))bis(azanediyl))bis(3-hydroxybutanoic acid)]
0.074 | 67.1 | 168 | Cc1c(COc2cc(OCc3cncc(C#N)c3)c(CN[C@@](C)(CO)C(=O)O)cc2Cl)cccc1-c1cccc(-c2ccc(CNCC3CCC(=O)N3)cc2)c1C (stereo partly drawn) [Example 323, (2S)-2-((5-chloro-2-((5-cyanopyridin-3-yl)methoxy)-4-((2,2′-dimethyl-4″-((((5-oxopyrrolidin-2-yl)methyl)amino)methyl)-[1,1′:3′,1″-terphenyl]-3-yl)methoxy)benzyl)amino)-3-hydroxy-2-methylpropanoic acid]
0.505 | 1020 | 894 | Cc1c(-c2ccc(CN3CC[C@@H](O)C3)cc2)cccc1-c1cccc(-c2ccc(CNC[C@@H](O)CC(=O)O)c(OCCCC#N)c2)c1C [Example 324, (S)-4-(((3-(3-cyanopropoxy)-4′″-(((R)-3-hydroxypyrrolidin-1-yl)methyl)-2′,2″-dimethyl-[1,1′:3′,1″:3″,1′″-quaterphenyl]-4-yl)methyl)amino)-3-hydroxybutanoic acid]
1.38 | 633 | 2580 | Cc1c(-c2ccc(CN3CC[C@@H](O)C3)cc2)cccc1-c1cccc(-c2ccc(CNC[C@@H](O)CC(=O)O)c(OC(F)(F)F)c2)c1C [Example 325, (S)-3-hydroxy-4-(((4′″-(((R)-3-hydroxypyrrolidin-1-yl)methyl)-2′,2″-dimethyl-3-(trifluoromethoxy)-[1,1′:3′,1″:3″,1′″-quaterphenyl]-4-yl)methyl)amino)butanoic acid]
1.15 | 1210 | 439 | Cc1c(COc2cc(OCc3cncc(C#N)c3)c(CNC[C@@H](O)CC(=O)O)cc2Cl)cccc1-c1cccc(-c2ccc(CNCc3cncc(C#N)c3)cc2)c1C [Example 326, (S)-4-((5-chloro-2-((5-cyanopyridin-3-yl)methoxy)-4-((4″-((((5-cyanopyridin-3-yl)methyl)amino)methyl)-2,2′-dimethyl-[1,1′:3′,1″-terphenyl]-3-yl)methoxy)benzyl)amino)-3-hydroxybutanoic acid]
0.142 | 241 | 146 | Cc1c(COc2nc(OC[C@@H]3CCC(=O)N3)c(CNC[C@@H](O)CC(=O)O)cc2Br)cccc1-c1cccc(COc2nc(OC[C@@H]3CCC(=O)N3)c(CNC[C@@H](O)CC(=O)O)cc2Br)c1C [Example 328, (3S,3′S)-4,4′-((((((2,2′-dimethyl-[1,1′-biphenyl]-3,3′-diyl)bis(methylene))bis(oxy))bis(5-bromo-2-(((S)-5-oxopyrrolidin-2-yl)methoxy)pyridine-6,3-diyl))bis(methylene))bis(azanediyl))bis(3-hydroxybutanoic acid)]
0.284 | 290 | 466 | Cc1c(COc2cc(OCc3cncc(C#N)c3)c(CN[C@@](C)(CO)C(=O)O)cc2Cl)cccc1-c1cccc(-c2nnc(CCN)o2)c1C [Example 329, (S)-2-((4-((3′-(5-(2-aminoethyl)-1,3,4-oxadiazol-2-yl)-2,2′-dimethyl-[1,1′-biphenyl]-3-yl)methoxy)-5-chloro-2-((5-cyanopyridin-3-yl)methoxy)benzyl)amino)-3-hydroxy-2-methylpropanoic acid]
0.188 | 209 | 1640 | Cc1c(COc2cc(OCc3cncc(C#N)c3)c(CNC[C@@H](O)CC(=O)O)cc2Cl)cccc1-c1cccc(-c2cn(C3CCNCC3)nn2)c1C [Example 330, (S)-4-((5-chloro-2-((5-cyanopyridin-3-yl)methoxy)-4-((2,2′-dimethyl-3′-(1-(piperidin-4-yl)-1H-1,2,3-triazol-4-yl)-[1,1′-biphenyl]-3-yl)methoxy)benzyl)amino)-3-hydroxybutanoic acid]
0.273 | 500 | 232 | Cc1c(COc2cc(OCc3cncc(C#N)c3)c(CNC[C@@H](O)CC(=O)O)cc2Cl)cccc1-c1cccc(-c2cn(CC3CCNC3)nn2)c1C (stereo partly drawn) [Example 331]
0.114 | 18.7 | 47 | C[C@@](CO)(NCc1cc(Cl)c(O[C@H]2CCc3c(-c4cccc(-c5ccc(OCCNCCO)cc5)c4Cl)cccc32)nc1OCc1cc(C#N)cc(C#N)c1)C(=O)O [Example 332, (S)-2-(((5-chloro-6-(((S)-4-(2-chloro-4′-(2-((2-hydroxyethyl)amino)ethoxy)-[1,1′-biphenyl]-3-yl)-2,3-dihydro-1H-inden-1-yl)oxy)-2-((3,5-dicyanobenzyl)oxy)pyridin-3-yl)methyl)amino)-3-hydroxy-2-methylpropanoic acid]
0.289 | 203 | 481 | Cc1c(COc2cc(OCc3cncc(C#N)c3)c(CN3CC[C@@H](O)C3)cc2Cl)cccc1-c1cccc(-c2ccc(CNCCCCC(=O)O)cc2)c1C [Example 333, (R)-5-(((3″-((2-chloro-5-((5-cyanopyridin-3-yl)methoxy)-4-((3-hydroxypyrrolidin-1-yl)methyl)phenoxy)methyl)-2′,2″-dimethyl-[1,1′:3′,1″-terphenyl]-4-yl)methyl)amino)pentanoic acid]
0.414 | 231 | 437 | Cc1c(COc2cc(OCc3cncc(C#N)c3)c(CNC[C@@H](O)CC(=O)O)cc2Cl)cccc1-c1cccc(-c2ccc(CN3CC[C@H](O)C3)cc2)c1C [Example 335, (S)-4-((5-chloro-2-((5-cyanopyridin-3-yl)methoxy)-4-((4″-(((S)-3-hydroxypyrrolidin-1-yl)methyl)-2,2′-dimethyl-[1,1′:3′,1″-terphenyl]-3-yl)methoxy)benzyl)amino)-3-hydroxybutanoic acid]
